The target in one data set is HPK1 (Homo sapiens (Human), UniProt Q92918). As to the kind of experiment: HPK1 biochemical assay (ADP-GLO Kinase Assay). The text has this: This example used the ADP-GLO™ Kinase Assay to measure the effect of potential HPK1 inhibitor compounds on HPK1 kinase activity.
The ADP-GLO™ Kinase Assay (Promega Corp., Madison, WI) measures ADP formed from a kinase reaction. According to the manufacture, the ADP formed in a kinase assay is first converted into ATP, which is then used to generate light in a luciferase reaction. The luminescence generated correlates with kinase activity. An exemplary experimental setting is described below, though minor adjustments can be made in individual assays.
Serial 3-fold dilution of compoounds from 10 µM (top concentration) to 0.508 nM (lowest concentration). Positive control is 10 µM Reference + enzyme + substrate. Negative control is 1% DMSO + enzyme + substrate.
40 mM Tris pH7.5; 20 mM MgC12, 0.1 mg/ml BSA, 50 µM DTT Buffer stock
• 1) The compounds were diluted to 1 mM, by mixing 10 µL of 10 mM respective compound stocks with 90 µL of DMSO. • 2) The compounds were then diluted 3-fold for 10 doses (5 µL to 10 µL dilution) by BRAVO. The top compound conc. was 1 mM (100×), DMSO Conc. was 100%. • 3) Transfer 100 nL of each diluted compound sample to 384-well plate (Corning-4512) by ECHO. • 4) Centrifuge the plate at 1,500 rpm for 1 minute.
20 µM ATP, 0.2 µg/µL MBP in Kinase Buffer (final concentration: 10 µM ATP, 0.1 µg/µL MBP)
• 5. Preparation of 2× HPK1 working solution with assay buffer. HPK1 final concentration was 0.6 ng/µL. […] Add 5 µL/well of 2× HPK1 working solution, Centrifuge at 1,500 rpm for 1 minute. • 7. Add 5 µL/well of 2× ATP-Substrate, Centrifuge at 1,500 rpm for 1 minute. • 8. Incubate at 25° C. for 1 hour (or 6 hours for compounds with high potency). • 9. Add 5 µL/well ADP-GLO™ Reagent to stop the kinase reaction and deplete the unconsumed ATP. Centrifuge at 1,500 rpm for 1 minute. Incubate at 25° C. for 40 min. • 10. Add 10 µL of Kinase Detection Reagent to convert ADP to ATP. Centrifuge at 1,500 rpm for 1 minute. Incubate at 25° C. for 40 min. • 11. Record luminescence signal on an Envision plate reader (384-CTG).
The percent (%) inhibition at each concentration of compound is calculated based on and relative to the signal in the High and Low control wells contained within each assay plate. […] The concentrations and % inhibition values for tested compounds were plotted and the concentration of compound required for 50% inhibition (IC50) was determined with a Three-parameter logistic dose response equation. The endpoint value (IC50) for the reference peptide/compound was evaluated in each experiment as a quality control measure. If the endpoint value was within 3-fold of the expected value, then the experiment was deemed acceptable.

Data set [1] can be described thus: Metabolic stability in liver microsomes, mouse (MLM). To be noted: 1 µM compound, NADPH; for half-life at 1 µM: CD-1, mouse, liver microsomes, pH 7.4, 0.5 mg/mL protein, read-out: Metabolic Stability T½ (min), MLM. It counts as in vitro ADME, CD-1 mouse. The method, then: This assay is for determining the stability of test compound in liver microsomes. The study will be conducted in accordance with International Bioethical Standards “World Medical Association Declaration of
Human, Sprague Dawley Rat, CD-1 mouse, Beagle Dog and Cynomolgus Monkey Liver Microsomes samples purchased from BD Gentest or RILD.
0.1 M Potassium phosphate buffer, pH 7.4: • Buffer A: 1.0 L of 0.1 M monobasic Potassium Phosphate buffer containing 1.0 mM EDTA • Buffer B: 1.0 L of 0.1 M Dibasic Potassium Phosphate buffer containing 1.0 mM EDTA • Buffer C (K-phosphate buffer): 0.1 M Potassium Phosphate buffer, 1.0 mM EDTA, pH 7.4 by titrating 700 mL of buffer B with buffer A while monitoring the pH meter
• Prepare 3× test compound or positive control solutions: 500 µM spiking solution: add 10 µL of 10 mM DMSO stock solution into 190 µL ACN. • 1.5 µM spiking solution in microsomes (0.75 mg/mL): add 1.5 µL of 500 µM spiking solution and 18.75 µL of 20 mg/mL liver microsomes into 479.75 µL of K-phosphate buffer.
Add 30 µL of 1.5 µM spiking solution containing 0.75 mg/ml microsomes solution to the wells designated for 45 min, 30 min, 15 min, 5 min and 0 min. Pre-incubate the plate at 37° C. for 5 minutes.
Add 15 µL of NADPH stock solution (6 mM) to all of the wells, and start timing. Immediately, add 135 µL of ACN containing IS to the wells designated as Time 0.
At 5 min, 15 min, 30 min and 45 min, add 135 µL of ACN containing IS to the wells, respectively.
After quenching, centrifuge the reaction mixtures at 3220 x g for 10 min.
Transfer 50 µL of the supernatant from each well into a 96-well sample plate containing 50 µL of ultra pure water (Millipore) for LC/MS analysis.
The % parent remaining at each incubation time point is calculated by comparing to the peak area ratio (compound peak area/internal standard peak area) at T0 (0 minute incubation). The ln peak area ratio is plotted against time and the gradient of the line is determined. The half-life and metabolism of compounds is calculated based upon a natural log linear regression of the relative peak areas vs time. The half-life and intrinsic clearance (Clint) in microsomes are calculated using the equations below. • In Vitro T ½ (min) = 0.693/Elimination rate of constant (k) • Clint (µL/min/mg of microsomal protein) = (0.693 / In Vitro T ½) (Incubation Volume/ mg of microsomes)
(In general: Microsomes from liver hold many membrane-bound enzymes, among them those of drug oxidation.)

The next data set in a line: Kinetic solubility assay. To be noted: pH 7.4, aqueous buffer, kinetic from dmso stock; phosphate buffer pH7.4, 1% DMSO, 1 hour at room temperature. It counts as physicochemical. The method, then:
This protocol is designed to measure kinetic solubility of test articles in assay buffer. The study will be conducted in accordance with International Bioethical Standards “World Medical Association Declaration of Helsinki.
100 Phosphate Buffer, pH7.4
• 1) Prepare stock solutions for test compounds in DMSO at 10 mM concentration. Dilute the stock solutions into 100 mM phosphate buffer in triplicate in 1.5 ml Eppendorf tubes to a target concentration of 100 µM with a final DMSO concentration of 1%: • 2) 4 µL of 10 mM DMSO stock solution into 396 µL of assay buffer. • 3) Keep the sample tubes shaken (1000 rpm) for 1 hour at room temperature. • 4) Centrifuge sample tubes for 10 min at 12000 rpm (Eppendrof-5424, about 13500 g) to precipitate un-dissolved particles. • 5) Transfer the supernatants to new tubes with different dilutions (undiluted, 10-fold diluted, 100-fold diluted, or other fold diluted). • 6) Add 5 µL of working solution and diluted supernatants to 95 µL ACN (containing IS). Analyze the samples by LC-MS-MS against calibration curve.
A standard calibration curve is prepared in Methanol/H2O (1:1).

The mark [2] stands for this setting: ADP-GLO, 10 µM ATP, MBP substrate, read-out: HPK1 IC50.
[3] abbreviates: Table 12-1, read-out: HPK1 inhibition activities.

In brackets after ≈: the same amount, converted by molar mass. Like-named read-outs stand apart in the source and are kept apart here.

Usually solubility (kinetic) stands for solubility judged after dilution from a stock solution rather than from solid.

Sequence of HPK1 (Q92918 whole entry): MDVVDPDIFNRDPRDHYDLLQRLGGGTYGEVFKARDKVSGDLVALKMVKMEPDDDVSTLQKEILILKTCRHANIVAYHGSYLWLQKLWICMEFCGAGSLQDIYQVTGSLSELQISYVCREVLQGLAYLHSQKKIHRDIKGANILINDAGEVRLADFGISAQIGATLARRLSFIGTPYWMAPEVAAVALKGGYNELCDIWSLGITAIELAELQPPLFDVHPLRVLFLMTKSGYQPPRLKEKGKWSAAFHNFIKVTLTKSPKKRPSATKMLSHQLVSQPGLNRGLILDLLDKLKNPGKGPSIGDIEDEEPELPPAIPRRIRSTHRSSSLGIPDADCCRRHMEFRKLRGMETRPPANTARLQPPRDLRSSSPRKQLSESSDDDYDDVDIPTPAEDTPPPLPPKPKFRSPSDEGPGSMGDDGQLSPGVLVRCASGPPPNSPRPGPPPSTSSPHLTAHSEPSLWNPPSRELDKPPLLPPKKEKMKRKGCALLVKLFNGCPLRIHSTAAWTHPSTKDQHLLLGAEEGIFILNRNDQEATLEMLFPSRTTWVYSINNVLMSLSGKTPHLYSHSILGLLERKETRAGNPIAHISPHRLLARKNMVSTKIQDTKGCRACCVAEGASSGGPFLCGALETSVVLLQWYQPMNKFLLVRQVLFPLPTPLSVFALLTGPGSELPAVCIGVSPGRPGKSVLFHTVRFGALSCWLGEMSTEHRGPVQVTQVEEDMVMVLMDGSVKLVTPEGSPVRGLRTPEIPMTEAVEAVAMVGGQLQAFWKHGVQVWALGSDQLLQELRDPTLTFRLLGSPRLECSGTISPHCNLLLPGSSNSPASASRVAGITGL

In the case of `CN1CCc2cc(F)c(Nc3ncc(Cl)c(N4C[C@](C)(CC(=O)O)c5ccccc54)n3)cc2C1` (single isomer, unassigned) [Example 5, (R)-2-[1-[5-chloro-2-[(6-fluoro-2-methyl-3,4-dihydro-1H-isoquinolin-7-yl)amino]pyrimidin-4-yl]-3-methyl-indolin-3-yl]acetic acid or (S)-2-[1-[5-chloro-2-[(6-fluoro-2-methyl-3,4-dihydro-1H-isoquinolin-7-yl)amino]pyrimidin-4-yl]-3-methyl-indolin-3-yl]acetic acid], the IC50 at HPK1 (setting [2]) was 0.2 nM; at HPK1 (setting [3]), below 1 nM. Further, the “Metabolic Stability T½ (min), MLM” value in data set [1] (0.5 mg/mL protein) is “MLM: 86 min”.
Turning to `COc1cc2c(cc1Nc1ncc(Cl)c(N3CC(C(=O)O)c4ccccc43)n1)CN(C)CC2` (centres unmarked) [Compound 7, reference compound], the IC50 at HPK1 (setting [2]) stood at 1 nM. The molecule further showed a solubility (kinetic) at 1 h in the data set “Kinetic solubility assay” of 7.71 µM (≈ 3.59 µg/mL). For the same molecule, the half-life at 1 µM in data set [1] is above 5000 min.
Consider `COc1cc2c(cc1Nc1ncc(Cl)c(N3CC(C)(CC(=O)O)c4ccccc43)n1)CN(C)CC2` (single isomer, unassigned) [Example 2, (R)-2-(1-(5-chloro-2-((6-methoxy-2-methyl-1,2,3,4-tetrahydroisoquinolin-7-yl)amino)pyrimidin-4-yl)-3-methylindolin-3-yl)acetic acid or (S)-2-(1-(5-chloro-2-((6-methoxy-2-methyl-1,2,3,4-tetrahydroisoquinolin-7-yl)amino)pyrimidin-4-yl)-3-methylindolin-3-yl)acetic acid], for which the IC50 is 0.2 nM at HPK1 (setting [2]) and below 1 nM on HPK1 (setting [3]). In addition, the half-life at 1 µM in data set [1] was found to be 101 min.
For `COc1cc2c(cc1Nc1ncc(Cl)c(N3CC(C)(CC(=O)O)c4ccccc43)n1)CN(C)CC2` (centres unmarked) [Example 1, 2-(1-(5-chloro-2-((6-methoxy-2-methyl-1,2,3,4-tetrahydroisoquinolin-7-yl)amino)pyrimidin-4-yl)-3-methylindolin-3-yl)acetic acid], the IC50 on HPK1 (setting [2]) is 0.5 nM; on HPK1 (setting [3]) it was below 1 nM. In the data set “Kinetic solubility assay”, this molecule gave a solubility (kinetic) at 1 h of 1.5 µM (≈ 0.741 µg/mL). The half-life at 1 µM in data set [1] was determined as 84 min.
Take `COc1cc2c(cc1Nc1ncc(Cl)c(N3CC(CC(=O)O)c4ccccc43)n1)CN(C)CC2` (centres unmarked) [Compound 8, reference compound]: the IC50 on HPK1 (setting [2]) stood at 1.5 nM. The solubility (kinetic) at 1 h in “Kinetic solubility assay” came to 62.1 µM (≈ 29.8 µg/mL). Further, the half-life at 1 µM in data set [1] came to 145 min.
The like results for `COc1cc2c(cc1Nc1ncc(Cl)c(N3CC(C)(CC(=O)O)c4ccc(F)cc43)n1)CN(C)CC2` (centres unmarked) [Compound 10, reference compound] were, in that order, 0.5 nM, 56.2 µM (≈ 28.8 µg/mL) and 46.1 min.
For `CN1CCc2cc(F)c(Nc3ncc(Cl)c(N4CC(C)(CC(=O)O)c5ccccc54)n3)cc2C1` (centres unmarked) [Example 4, 2-(1-(5-chloro-2-((6-fluoro-2-methyl-1,2,3,4-tetrahydroisoquinolin-7-yl)amino)pyrimidin-4-yl)-3-methylindolin-3-yl)acetic acid], the IC50 was 0.7 nM at HPK1 (setting [2]) and below 1 nM on HPK1 (setting [3]). The kinetic solubility at 1 h in “Kinetic solubility assay” was found to be 46.7 µM (≈ 22.5 µg/mL). Moreover, in data set [1], the half-life at 1 µM was determined as 79.4 min.

The record behind these values is patent US20230339896A1, “HPK1 INHIBITORS AND USES THEREOF” (QILU REGOR THERAPEUTICS INC., priority 2020, published 2023).
